This is an account of results in patent US20210255193A1, “LYSINE REACTIVE PROBES AND USES THEREOF” (The Scripps Research Institute, priority 2017, published 2021).

Each structure is given as a SMILES string.

Assay [1] concerns the target T1, NUDT22 Nucleoside diphosphate-linked moiety X motif 22 (Homo sapiens, UniProt Q9BRQ3).
T1 construct: isoTOP-ABPP experiments performed in cell lysates (in vitro); endogenous in cells; host or cells: soluble proteome of human cancer cell lines (MDA-MB-231; Ramos and Jurkat also prepared)
T1 sequence (Q9BRQ3 1-303): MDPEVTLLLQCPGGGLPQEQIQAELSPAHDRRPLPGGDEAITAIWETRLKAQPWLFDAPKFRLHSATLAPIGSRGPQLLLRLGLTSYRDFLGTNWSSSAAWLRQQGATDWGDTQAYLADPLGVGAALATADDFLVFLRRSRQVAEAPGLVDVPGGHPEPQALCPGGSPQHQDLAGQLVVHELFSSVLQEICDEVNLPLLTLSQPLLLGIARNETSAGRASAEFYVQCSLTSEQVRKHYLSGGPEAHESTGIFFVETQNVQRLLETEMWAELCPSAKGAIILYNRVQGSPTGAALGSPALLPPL
As to the kind of experiment: competitive isoTOP-ABPP. Type of assay: binding. The settings on record: for R value (DMSO/fragment) for probe 1 labeling: Q9BRQ3_K60; for R value (DMSO/fragment) for probe 1 labeling / isoTOP-ABPP reactivity ratio at lysine Q9BRQ3_K60 / isoTOP-ABPP ratio (R) at liganded lysine Q9BRQ3_K60: 50 uM, in vitro; for R value (DMSO/fragment) for probe 1 labeling / isoTOP-ABPP reactivity ratio at lysine Q9BRQ3_K60: 231 sol; for isoTOP-ABPP ratio (R) at liganded lysine Q9BRQ3_K60: sol, 231. A digest of the protocol: (§1)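 Here, isoTOP-ABPP measures loss of STP-alkyne labeling at individual lysines after fragment exposure in lysate. Activated esters are dosed at 50 μM, guanidinylating agents at 100 μM; the probe follows at 0.1 mM for 1 h. R ≥4 marks a liganded lysine.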

Assay [2] deals with T2, NONO Non-POU domain-containing octamer-binding protein (Homo sapiens, UniProt Q15233).
T2 construct: isoTOP-ABPP experiments performed in cell lysates (in vitro); endogenous in cells; host or cells: soluble proteome of human cancer cell lines (MDA-MB-231; Ramos and Jurkat also prepared)
T2 sequence (Q15233 1-471): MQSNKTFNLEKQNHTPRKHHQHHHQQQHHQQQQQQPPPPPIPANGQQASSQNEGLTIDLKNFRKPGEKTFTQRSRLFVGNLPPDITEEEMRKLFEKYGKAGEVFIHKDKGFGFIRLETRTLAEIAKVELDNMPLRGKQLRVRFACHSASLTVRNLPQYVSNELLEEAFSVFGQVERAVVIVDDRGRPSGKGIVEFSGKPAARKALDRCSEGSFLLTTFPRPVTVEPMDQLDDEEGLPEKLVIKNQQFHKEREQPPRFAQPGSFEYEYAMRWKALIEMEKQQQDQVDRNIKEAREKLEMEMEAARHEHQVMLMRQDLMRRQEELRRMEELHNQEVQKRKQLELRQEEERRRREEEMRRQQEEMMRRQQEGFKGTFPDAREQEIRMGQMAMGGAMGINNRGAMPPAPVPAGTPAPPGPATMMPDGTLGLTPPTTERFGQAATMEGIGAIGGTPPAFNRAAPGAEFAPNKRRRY
As to the kind of experiment: competitive isoTOP-ABPP. The settings on record: for R value (DMSO/fragment) for probe 1 labeling: Q15233_K467; for R value (DMSO/fragment) for probe 1 labeling / isoTOP-ABPP reactivity ratio at lysine Q15233_K467 / isoTOP-ABPP ratio (R) at liganded lysine Q15233_K467: 50 uM, in vitro; for R value (DMSO/fragment) for probe 1 labeling / isoTOP-ABPP reactivity ratio at lysine Q15233_K467: 231 sol; for isoTOP-ABPP ratio (R) at liganded lysine Q15233_K467: sol, 231. A digest of the protocol:
as §1

For the compound `O=C(CCc1cn(-c2ccccc2)nc1-c1ccccc1)Oc1c(F)c(F)c(F)c(F)c1F` [fragment 19, Pentafluorophenyl 3-(1,3-diphenyl-1H-pyrazol-4-yl)propanoate], in assay [1], the “R value (DMSO/fragment) for probe 1 labeling” value (shortened to “R value (DMSO/fragment)”) is on record as 0.9. With `O=C(Oc1c(F)c(F)c(F)c(F)c1F)C(c1ccccc1)c1ccccc1` [fragment 20, Pentafluorophenyl 2,2-diphenylacetate], the “R value (DMSO/fragment)” value in assay [1] stood at 0.8; in assay [2], 1.2. `O=C(Oc1c(F)c(F)c(F)c(F)c1F)c1cc(C(F)(F)F)cc(C(F)(F)F)c1` [fragment 21, Pentafluorophenyl 3,5-bis(trifluoromethyl)benzoate]: the results for the “R value (DMSO/fragment)” value in assay [1] and in assay [2] were 0.8 and 1.5, respectively. Consider `O=C(Oc1c(F)c(F)c(F)c(F)c1F)C1CCN(C(=O)OCc2ccccc2)CC1` [fragment 24, 1-Benzyl 4-(pentafluorophenyl) piperidine-1,4-dicarboxylate], for which the “isoTOP-ABPP reactivity ratio at lysine Q15233_K467” value in assay [2] came to 1.0. As to `O=C(Oc1c(F)c(F)c(F)c(F)c1F)c1ccc2ccccc2n1` [fragment 25, Pentafluorophenyl quinoline-2-carboxylate], the “isoTOP-ABPP reactivity ratio at lysine Q9BRQ3_K60” value in assay [1] amounted to 0.8. As for `O=C(CCc1coc2cc(F)ccc2c1=O)Oc1c(F)c(F)c(F)c(F)c1F` [fragment 26, Pentafluorophenyl 3-(7-fluoro-4-oxo-4H-chromen-3-yl)propanoate], in assay [1], the “isoTOP-ABPP reactivity ratio at lysine Q9BRQ3_K60” value is 0.8.

Take `O=C(CN1C(=O)c2ccccc2C1=O)Oc1c(F)c(F)c(F)c(F)c1F` [fragment 27, Pentafluorophenyl 2-(1,3-dioxoisoindolin-2-yl)acetate]: the “isoTOP-ABPP reactivity ratio at lysine Q9BRQ3_K60” value in assay [1] was 1.2.

On to `CCn1cc(C(=O)Oc2c(F)c(F)c(F)c(F)c2F)c(=O)c2ccc(C)nc21` [fragment 28, Pentafluorophenyl 1-ethyl-7-methyl-4-oxo-1,4-dihydro-1,8-naphthyridine-3-carboxylate], for which the “isoTOP-ABPP reactivity ratio at lysine Q9BRQ3_K60” value in assay [1] was determined as 1.0.

Take `O=C(CCc1cn(-c2ccccc2)nc1-c1ccccc1)Oc1ccc([N+](=O)[O-])cc1[N+](=O)[O-]` [fragment 29, 2,4-Dinitrophenyl 3-(1,3-diphenyl-1H-pyrazol-4-yl)propanoate]: the “isoTOP-ABPP reactivity ratio at lysine Q9BRQ3_K60” value in assay [1] is on record as 0.8. In the case of `O=C(Oc1ccc([N+](=O)[O-])cc1[N+](=O)[O-])c1cc(C(F)(F)F)cc(C(F)(F)F)c1` [fragment 31, 2,4-Dinitrophenyl 3,5-bis(trifluoromethyl)benzoate], in assay [1], the “isoTOP-ABPP reactivity ratio at lysine Q9BRQ3_K60” value came out at 1.1. Further, in assay [2], the “isoTOP-ABPP reactivity ratio at lysine Q15233_K467” value is 1.3. Regarding `Cn1cc(CC(=O)Oc2ccc([N+](=O)[O-])cc2[N+](=O)[O-])c2ccccc21` [fragment 32, 2,4-Dinitrophenyl 2-(1-methyl-1H-indol-3-yl)acetate], the “isoTOP-ABPP reactivity ratio at lysine Q9BRQ3_K60” value in assay [1] is 20.0. Besides, the “isoTOP-ABPP reactivity ratio at lysine Q15233_K467” value in assay [2] is reported as 1.2.

For `COc1cc(CCC(=O)Oc2ccc([N+](=O)[O-])cc2[N+](=O)[O-])cc(OC)c1OC` [fragment 33, 2,4-Dinitrophenyl 3-(3,4,5-trimethoxyphenyl)propanoate], the “isoTOP-ABPP reactivity ratio at lysine Q15233_K467” value in assay [2] came out at 3.7.

As for `O=C(Oc1ccc([N+](=O)[O-])cc1[N+](=O)[O-])c1ccc2ccccc2n1` [fragment 35, 2,4-Dinitrophenyl quinoline-2-carboxylate], the “isoTOP-ABPP ratio (R) at liganded lysine Q9BRQ3_K60” value in assay [1] came to 1.1. Consider `O=C(Oc1ccc([N+](=O)[O-])cc1[N+](=O)[O-])c1ccc(-c2ccccc2)cc1` [fragment 37, 2,4-Dinitrophenyl [1,1′-biphenyl]-4-carboxylate], for which the “isoTOP-ABPP ratio (R) at liganded lysine Q9BRQ3_K60” value in assay [1] turned out to be 1.0. In addition, the “isoTOP-ABPP ratio (R) at liganded lysine Q15233_K467” value in assay [2] came to 0.8. Regarding `O=C(Oc1ccc([N+](=O)[O-])cc1[N+](=O)[O-])c1ccc(Oc2ccccc2)cc1` [fragment 39, 2,4-Dinitrophenyl 4-phenoxybenzoate], the “isoTOP-ABPP ratio (R) at liganded lysine Q9BRQ3_K60” value in assay [1] amounted to 0.9. For `O=C(Oc1ccc([N+](=O)[O-])cc1[N+](=O)[O-])c1ccccc1Nc1cccc(C(F)(F)F)c1` [fragment 40, 2,4-Dinitrophenyl 2-((3-(trifluoromethyl)phenyl)amino)benzoate], in assay [1], the “isoTOP-ABPP ratio (R) at liganded lysine Q9BRQ3_K60” value was found to be 0.9. For the same compound, in assay [2], the “isoTOP-ABPP ratio (R) at liganded lysine Q15233_K467” value came out at 4.1. Regarding `CC(C)(C)OC(=O)NCCCC(=O)Oc1ccc([N+](=O)[O-])cc1[N+](=O)[O-]` [fragment 41, 2,4-Dinitrophenyl 4-((tert-butoxycarbonyl)amino)butanoate], the “isoTOP-ABPP ratio (R) at liganded lysine Q9BRQ3_K60” value in assay [1] is on record as 20.0. Turning to `O=C(Oc1ccc([N+](=O)[O-])cc1[N+](=O)[O-])C(c1ccccc1)(c1ccccc1)c1ccccc1` [fragment 42, 2,4-Dinitrophenyl 2,2,2-triphenylacetate], the “isoTOP-ABPP ratio (R) at liganded lysine Q9BRQ3_K60” value in assay [1] is reported as 0.8. The “isoTOP-ABPP ratio (R) at liganded lysine Q15233_K467” value in assay [2] is 2.5. For the compound `CC(=O)Oc1ccc([N+](=O)[O-])cc1[N+](=O)[O-]` [fragment 43, 2,4-Dinitrophenyl acetate], the “isoTOP-ABPP ratio (R) at liganded lysine Q15233_K467” value in assay [2] was 3.1. Take `N#Cc1ccc(C(=O)Oc2ccc([N+](=O)[O-])cc2[N+](=O)[O-])cc1` [fragment 44, 2,4-Dinitrophenyl 4-cyanobenzoate]: the “isoTOP-ABPP ratio, lysine Q15233_K467” value in assay [2] (50 uM_231_sol_in vitro) was determined as 0.9.

Consider `O=C(CCc1ccc2c(c1)OCO2)Oc1ccc([N+](=O)[O-])cc1[N+](=O)[O-]` [fragment 45, 2,4-Dinitrophenyl 3-(benzo[d][1,3]dioxol-5-yl)propanoate], for which the “isoTOP-ABPP ratio, lysine Q9BRQ3_K60” value in assay [1] (50 uM_231_sol_in vitro) came out at 1.7. For `O=C(ON1C(=O)CCC1=O)c1cc(C(F)(F)F)cc(C(F)(F)F)c1` [fragment 46, 3,5-Bis(trifluoromethyl)benzoic acid NHS ester], in assay [1] (50 uM_231_sol_in vitro), the “isoTOP-ABPP ratio, lysine Q9BRQ3_K60” value was determined as 0.9. In addition, the “isoTOP-ABPP ratio, lysine Q15233_K467” value in assay [2] (50 uM_231_sol_in vitro) came to 0.4. On to `O=C(Oc1c(F)c(F)c(C(F)(F)F)c(F)c1F)c1cc(C(F)(F)F)cc(C(F)(F)F)c1` [fragment 47, 2,3,5,6-Tetrafluoro-4-(trifluoromethyl)phenyl 3,5-bis(trifluoromethyl)benzoate], for which the “isoTOP-ABPP ratio, lysine Q9BRQ3_K60” value in assay [1] (50 uM_231_sol_in vitro) was determined as 1.1.

Take `COC(=O)NC(=NC(=O)OCC1c2ccccc2-c2ccccc21)n1cccn1` [fragment 49, N-Methoxycarbonyl-N′-9-fluorenylmethoxycarbonyl-pyrazole-1-carboxamidine]: in assay [2] (100 uM_231_sol_in vitro), the “isoTOP-ABPP ratio, lysine Q15233_K467” value is listed as 4.9. In the case of `CC(C)(C)OC(=O)N=C(NC(=O)OC(C)(C)C)n1cccn1` [fragment 50, reference compound], the “isoTOP-ABPP ratio, lysine Q9BRQ3_K60” value in assay [1] (100 uM_231_sol_in vitro) was 1.0.
